Results from patent US12441768B2, “Compositions and methods for treating endometriosis” (EndoMet Biosciences, Inc., priority 2018, dated 2025).
Read-outs that look alike come from different tables or passages of the source. Where a SMILES comes first, the peptide text is derived from it.

Biological target: T1, β-catenin (Homo sapiens, UniProt P35222)
T1 sequence (P35222 1-781): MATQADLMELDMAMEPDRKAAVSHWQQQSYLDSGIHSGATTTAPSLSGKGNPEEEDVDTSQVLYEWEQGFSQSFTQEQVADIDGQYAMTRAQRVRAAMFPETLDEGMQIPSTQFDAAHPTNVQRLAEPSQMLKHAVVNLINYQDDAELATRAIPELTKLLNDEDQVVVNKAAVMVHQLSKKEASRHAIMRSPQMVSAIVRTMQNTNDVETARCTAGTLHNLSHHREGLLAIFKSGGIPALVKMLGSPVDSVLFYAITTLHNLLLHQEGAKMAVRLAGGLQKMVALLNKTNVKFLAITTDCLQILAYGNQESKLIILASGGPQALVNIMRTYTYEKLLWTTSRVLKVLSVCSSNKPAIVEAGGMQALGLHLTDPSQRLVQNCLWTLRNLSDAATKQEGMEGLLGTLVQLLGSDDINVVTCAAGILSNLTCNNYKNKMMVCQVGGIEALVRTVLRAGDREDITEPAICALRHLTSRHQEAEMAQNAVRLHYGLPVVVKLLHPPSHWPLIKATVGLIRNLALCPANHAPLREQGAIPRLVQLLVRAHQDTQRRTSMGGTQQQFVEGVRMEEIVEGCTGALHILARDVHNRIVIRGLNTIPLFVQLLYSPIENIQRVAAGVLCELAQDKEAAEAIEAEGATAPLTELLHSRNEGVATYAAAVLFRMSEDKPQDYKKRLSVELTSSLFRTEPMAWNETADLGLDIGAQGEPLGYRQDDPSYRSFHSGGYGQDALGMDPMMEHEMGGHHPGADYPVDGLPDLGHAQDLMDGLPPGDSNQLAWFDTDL
Experiment: KD50 measurement using competitive fluorescence polarization (FP) with labelled TCF4
Format: binding
Settings: fluorescence polarization, β-catenin
How it was run: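 5 nM labelled TCF4 was combined with 100 nM β-catenin at room temperature, then inhibitor was titrated in serial dilutions from 10 nM to 30 uM. Polarization was read at excitation 470 nm, emission 520 nm; displacement lowers the signal. Three independent experiments.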

Row | SMILES | Kd (read-out: β-Cat FP KD) [nM] | β-Cat FP Hill slope | Kd (β-Cat FP KD) [nM]
1 | CCCCCCCCCCCC(=O)N(C)[C@@H](C)C(=O)N[C@@H](CCC(N)=O)C(=O)N[C@H]1CCCCNC(=O)CC[C@@H](C(=O)N[C@@H](Cc2c[nH]cn2)C(=O)N[C@H](C(=O)N[C@@H](CCC(N)=O)C(=O)N[C@@H](CCCNC(=N)N)C(=O)N[C@H](C(=O)N[C@@H](Cc2c[nH]c3ccccc23)C(=O)NCC(N)=O)C(C)C)C2CCCCC2)NC(=O)[C@H](CC(N)=O)NC(=O)[C@H](CC(C)C)NC(=O)[C@H]([C@@H](C)CC)NC1=O [compound 434] (HELM PEPTIDE1{[CCCCCCCCCCCC(=O)[*:2]].[meA].Q.K.I.L.N.E.H.[O=C([C@@H](N[*:1])C1CCCCC1)[*:2]].Q.R.V.W.G.[am]}$PEPTIDE1,PEPTIDE1,4:R3-8:R3$$$V2.0) | < 400 |  | 
2 | CCCCCCCCCCCC(=O)N[C@@H](Cc1c[nH]c2ccccc12)C(=O)N(C)[C@@H](C)C(=O)N[C@@H](CCC(N)=O)C(=O)N[C@H]1CCCCNC(=O)CC[C@@H](C(=O)N[C@@H](Cc2c[nH]cn2)C(=O)N[C@H](C(=O)N[C@@H](CCC(N)=O)C(=O)N[C@@H](CCCNC(=N)N)C(=O)N[C@H](C(=O)N[C@@H](Cc2c[nH]c3ccccc23)C(=O)NCC(N)=O)C(C)C)C2CCCCC2)NC(=O)[C@H](CC(N)=O)NC(=O)[C@H](CC(C)C)NC(=O)[C@H]([C@@H](C)CC)NC1=O [compound 436] (HELM PEPTIDE1{[CCCCCCCCCCCC(=O)[*:2]].W.[meA].Q.K.I.L.N.E.H.[O=C([C@@H](N[*:1])C1CCCCC1)[*:2]].Q.R.V.W.G.[am]}$PEPTIDE1,PEPTIDE1,5:R3-9:R3$$$V2.0) | > 30000 |  | 
3 | CC[C@H](C)[C@H](NC(=O)[C@H](CO)NC(=O)[C@H](CCC(N)=O)NC(=O)[C@H](C)N(C)C(=O)[C@H](Cc1c[nH]c2ccccc12)NC(C)=O)C(=O)N[C@@H](CC(C)C)C(=O)N[C@@H](CC(=O)O)C(=O)N[C@H]1CCC(=O)NCCCC[C@@H](C(=O)N[C@H](C(=O)N[C@@H](Cc2c[nH]c3ccccc23)C(=O)NCC(N)=O)C(C)C)NC(=O)[C@H](CCC(N)=O)NC(=O)[C@H](C(C)C)NC(=O)[C@H](Cc2c[nH]cn2)NC1=O [compound 437] (HELM PEPTIDE1{[ac].W.[meA].Q.S.I.L.D.E.H.V.Q.K.V.W.G.[am]}$PEPTIDE1,PEPTIDE1,9:R3-13:R3$$$V2.0) | < 400 | 0.7 | 
4 | CCCCCCCCC(=O)N[C@@H](Cc1c[nH]c2ccccc12)C(=O)N(C)[C@@H](C)C(=O)N[C@@H](CCC(N)=O)C(=O)N[C@@H](CO)C(=O)N[C@H](C(=O)N[C@@H](CC(C)C)C(=O)N[C@@H](CC(=O)O)C(=O)N[C@H]1CCC(=O)NCCCC[C@@H](C(=O)N[C@H](C(=O)N[C@@H](Cc2c[nH]c3ccccc23)C(=O)NCC(N)=O)C(C)C)NC(=O)[C@H](CCC(N)=O)NC(=O)[C@H](C(C)C)NC(=O)[C@H](Cc2c[nH]cn2)NC1=O)[C@@H](C)CC [compound 438] (HELM PEPTIDE1{[CCCCCCCCC(=O)[*:2]].W.[meA].Q.S.I.L.D.E.H.V.Q.K.V.W.G.[am]}$PEPTIDE1,PEPTIDE1,9:R3-13:R3$$$V2.0) | < 400 |  | 
5 | CCCCCCCCCCCC(=O)N[C@@H](Cc1c[nH]c2ccccc12)C(=O)N(C)[C@@H](C)C(=O)N[C@@H](CCC(N)=O)C(=O)N[C@@H](CO)C(=O)N[C@H](C(=O)N[C@@H](CC(C)C)C(=O)N[C@@H](CC(=O)O)C(=O)N[C@H]1CCC(=O)NCCCC[C@@H](C(=O)N[C@H](C(=O)N[C@@H](Cc2c[nH]c3ccccc23)C(=O)NCC(N)=O)C(C)C)NC(=O)[C@H](CCC(N)=O)NC(=O)[C@H](C(C)C)NC(=O)[C@H](Cc2c[nH]cn2)NC1=O)[C@@H](C)CC [compound 439] (HELM PEPTIDE1{[CCCCCCCCCCCC(=O)[*:2]].W.[meA].Q.S.I.L.D.E.H.V.Q.K.V.W.G.[am]}$PEPTIDE1,PEPTIDE1,9:R3-13:R3$$$V2.0) | < 400 |  | 
6 | CCCCCCCCCCCC(=O)N[C@@H](CCC(=O)O)C(=O)N[C@@H](CC(=O)O)C(=O)N1CCC[C@H]1C(=O)N[C@@H](CCC(N)=O)C(=O)N[C@H]1CCCCNC(=O)CC[C@@H](C(=O)N[C@@H](Cc2c[nH]cn2)C(=O)N[C@@H](CC(C)C)C(=O)N[C@@H](CCC(N)=O)C(=O)N[C@@H](CCCNC(=N)N)C(=O)N[C@H](C(=O)N[C@@H](CC(C)C)C(=O)N[C@@H](CCCCN)C(N)=O)C(C)C)NC(=O)[C@H](CC(=O)O)NC(=O)[C@H](CC(C)C)NC(=O)[C@H]([C@@H](C)CC)NC1=O [compound 444] (HELM PEPTIDE1{[CCCCCCCCCCCC(=O)[*:2]].E.D.P.Q.K.I.L.D.E.H.L.Q.R.V.L.K.[am]}$PEPTIDE1,PEPTIDE1,6:R3-10:R3$$$V2.0) | < 400 |  | 
7 | CC[C@H](C)[C@@H]1NC(=O)[C@@H](NC(=O)[C@H](CCC(N)=O)NC(=O)[C@H](C)N(C)C(=O)[C@H](Cc2c[nH]c3ccccc23)NC(C)=O)CCCCNC(=O)CC[C@@H](C(=O)N[C@@H](Cc2c[nH]cn2)C(=O)N[C@H](C(=O)N[C@@H](CCC(N)=O)C(=O)N[C@@H](CCCNC(=N)N)C(=O)N[C@H](C(=O)N[C@@H](Cc2c[nH]c3ccccc23)C(N)=O)C(C)C)C2CCCCC2)NC(=O)[C@H](CC(=O)O)NC(=O)[C@H](CC(C)C)NC1=O [compound 446] (HELM PEPTIDE1{[ac].W.[meA].Q.K.I.L.D.E.H.[O=C([C@@H](N[*:1])C1CCCCC1)[*:2]].Q.R.V.W.[am]}$PEPTIDE1,PEPTIDE1,5:R3-9:R3$$$V2.0) | < 400 | 0.7 | 
8 | CCCCCCCCCCCC(=O)N[C@@H](Cc1c[nH]c2ccccc12)C(=O)N(C)[C@@H](C)C(=O)N[C@@H](CCC(N)=O)C(=O)N[C@H]1CCCCNC(=O)CC[C@@H](C(=O)N[C@@H](Cc2c[nH]cn2)C(=O)N[C@H](C(=O)N[C@@H](CCC(N)=O)C(=O)N[C@@H](CCCNC(=N)N)C(=O)N[C@H](C(=O)N[C@@H](Cc2c[nH]c3ccccc23)C(N)=O)C(C)C)C2CCCCC2)NC(=O)[C@H](CC(=O)O)NC(=O)[C@H](CC(C)C)NC(=O)[C@H]([C@@H](C)CC)NC1=O [compound 447] (HELM PEPTIDE1{[CCCCCCCCCCCC(=O)[*:2]].W.[meA].Q.K.I.L.D.E.H.[O=C([C@@H](N[*:1])C1CCCCC1)[*:2]].Q.R.V.W.[am]}$PEPTIDE1,PEPTIDE1,5:R3-9:R3$$$V2.0) | < 400 |  | 
9 | CC[C@H](C)[C@@H]1NC(=O)[C@H](CO)NC(=O)[C@@H](NC(=O)[C@H](C)N(C)C(=O)[C@H](Cc2c[nH]c3ccccc23)NC(C)=O)CCC(=O)NCCCC[C@@H](C(=O)N[C@@H](CCC(=O)O)C(=O)N[C@@H](Cc2c[nH]cn2)C(=O)N[C@H](C(=O)N[C@@H](CCC(N)=O)C(=O)N[C@@H](CCCNC(=N)N)C(=O)N[C@H](C(=O)N[C@@H](Cc2c[nH]c3ccccc23)C(=O)NCC(N)=O)C(C)C)C(C)C)NC(=O)[C@H](CC(C)C)NC1=O [compound 450] (HELM PEPTIDE1{[ac].W.[meA].E.S.I.L.K.E.H.V.Q.R.V.W.G.[am]}$PEPTIDE1,PEPTIDE1,4:R3-8:R3$$$V2.0) | 400 to 1000 | 0.79 | 
10 | CCCCCCCCCCCC(=O)N[C@@H](Cc1c[nH]c2ccccc12)C(=O)N(C)[C@@H](C)C(=O)N[C@H]1CCC(=O)NCCCC[C@@H](C(=O)N[C@@H](CCC(=O)O)C(=O)N[C@@H](Cc2c[nH]cn2)C(=O)N[C@H](C(=O)N[C@@H](CCC(N)=O)C(=O)N[C@@H](CCCNC(=N)N)C(=O)N[C@H](C(=O)N[C@@H](Cc2c[nH]c3ccccc23)C(=O)NCC(N)=O)C(C)C)C(C)C)NC(=O)[C@H](CC(C)C)NC(=O)[C@H]([C@@H](C)CC)NC(=O)[C@H](CO)NC1=O [compound 451] (HELM PEPTIDE1{[CCCCCCCCCCCC(=O)[*:2]].W.[meA].E.S.I.L.K.E.H.V.Q.R.V.W.G.[am]}$PEPTIDE1,PEPTIDE1,4:R3-8:R3$$$V2.0) | 1000 to 10000 |  | 
11 | CCCCCCCCCCCC(=O)N[C@@H](Cc1c[nH]c2ccccc12)C(=O)N(C)[C@@H](C)C(=O)N[C@@H](CCC(N)=O)C(=O)N[C@H]1CCCCNC(=O)C[C@@H](C(=O)N[C@@H](Cc2c[nH]cn2)C(=O)N[C@H](C(=O)N[C@@H](CCC(N)=O)C(=O)N[C@@H](C)C(=O)N[C@H](C(N)=O)C(C)C)C2CCCCC2)NC(=O)[C@H](CC(N)=O)NC(=O)[C@H](CC(C)C)NC(=O)[C@H]([C@@H](C)CC)NC1=O [compound 453] (HELM PEPTIDE1{[CCCCCCCCCCCC(=O)[*:2]].W.[meA].Q.K.I.L.N.D.H.[O=C([C@@H](N[*:1])C1CCCCC1)[*:2]].Q.A.V.[am]}$PEPTIDE1,PEPTIDE1,5:R3-9:R3$$$V2.0) |  |  | 1000 to 10000
12 | CCCCCCCCCCCCCCCC(=O)N[C@@H](Cc1c[nH]c2ccccc12)C(=O)N(C)[C@@H](C)C(=O)N[C@@H](CCC(N)=O)C(=O)N[C@H]1CCCCNC(=O)C[C@@H](C(=O)N[C@@H](Cc2c[nH]cn2)C(=O)N[C@H](C(=O)N[C@@H](CCC(N)=O)C(=O)N[C@@H](C)C(=O)N[C@H](C(N)=O)C(C)C)C2CCCCC2)NC(=O)[C@H](CC(N)=O)NC(=O)[C@H](CC(C)C)NC(=O)[C@H]([C@@H](C)CC)NC1=O [compound 454] (HELM PEPTIDE1{[CCCCCCCCCCCCCCCC(=O)[*:2]].W.[meA].Q.K.I.L.N.D.H.[O=C([C@@H](N[*:1])C1CCCCC1)[*:2]].Q.A.V.[am]}$PEPTIDE1,PEPTIDE1,5:R3-9:R3$$$V2.0) |  |  | 1000 to 10000
